From US20260097037A1, “FUSED RING COMPOUND HAVING GLP-1 RECEPTOR AGONIST EFFECT” (Shionogi & Co., Ltd., priority 2022, published 2026)

Target: T1, Human GLP-1 receptor stably expressing cells (hGLP-1R/CHO-K1 cells) (Homo sapiens, UniProt P43220)
T1 construct: expressed in transfected cells
Assay: Measurement of GLP-1 receptor agonist activity (cAMP assay)
Format: cell-based
Details: for Emax: CHO-K1, maximum effect, cAMP with 2 nM human GLP-1 (7-36) = 100%, DMSO only = 0%, read-out: Emax; for EC50: increase in cAMP concentration in hGLP-1R/CHO-K1 cells, 37° C. 1 hour
Method in brief: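 hGLP-1R/CHO-K1 cells (cryopreserved) incubated with compound and forskolin in HBSS with 0.1% BSA, IBMX and RO20-1724, 1 h at 37° C; cAMP read by HTRF. EC50 and Emax from cAMP rise, normalised to 2 nM human GLP-1 (7-36) (100%) and DMSO (0%).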

T1 sequence (P43220 24-463): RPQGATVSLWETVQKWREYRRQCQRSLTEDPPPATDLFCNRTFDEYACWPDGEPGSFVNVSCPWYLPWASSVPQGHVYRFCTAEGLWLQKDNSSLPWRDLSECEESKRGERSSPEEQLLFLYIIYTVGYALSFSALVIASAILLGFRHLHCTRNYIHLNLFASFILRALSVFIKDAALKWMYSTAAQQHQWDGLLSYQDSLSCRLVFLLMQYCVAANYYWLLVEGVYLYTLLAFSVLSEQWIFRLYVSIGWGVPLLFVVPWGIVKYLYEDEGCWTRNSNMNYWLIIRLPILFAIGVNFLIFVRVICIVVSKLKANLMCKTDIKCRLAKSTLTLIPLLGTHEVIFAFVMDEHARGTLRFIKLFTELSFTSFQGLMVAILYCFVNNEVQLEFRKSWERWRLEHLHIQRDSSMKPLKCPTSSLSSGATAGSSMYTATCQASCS

Emax [%] | EC50 [nM] | Compound
120 | 0.531 | C[C@H]1c2nc(OCc3ccccc3Cl)c(C#N)cc2CCN1Cc1nc2c(Cl)cc(C(=O)O)cc2n1C[C@@H]1CCO1 [Compound I-181]
117 | 0.469 | C[C@H]1c2nc(OCc3cc(F)c(Cl)cc3F)c(C(F)F)cc2CCN1Cc1nc2ccc(C(=O)O)nc2n1C[C@@H]1CCO1 [Compound I-102]
104 | 0.193 | C[C@H]1c2nc(NCc3ccc(Cl)cc3)c(C(F)(F)F)cc2CCN1Cc1nc2c(Cl)cc(C(=O)O)cc2n1C[C@@H]1CCO1 [Compound I-168]
110 | 0.0683 | COc1cc(C(=O)O)cc2c1nc(CN1CCc3cc(Cl)c(OCc4ccc(OC(F)F)cc4F)nc3[C@@H]1C)n2C[C@@H]1CCO1 [Compound I-071]
129 | 0.0679 | C[C@H]1c2nc(OCc3cc(F)c(Cl)cc3F)c(Cl)cc2CCN1Cc1nc2ccc(C(=O)O)c(F)c2n1C[C@@H]1CCO1 [Compound I-040]
123 | 0.417 | Cc1ccc(COc2nc3c(cc2C(F)F)CCN(Cc2nc4ccc(C(=O)O)cc4n2C[C@@H]2CCO2)[C@H]3C)cc1 [Compound I-053]
113 | 0.432 | C[C@H]1c2nc(OCc3ccccc3Cl)c(Cl)cc2CCN1Cc1nc2ccc(C(=O)O)c(F)c2n1C[C@@H]1CCO1 [Compound I-036]
91.7 | 2.64 | C[C@H]1c2c(ccc3c2OC(C)(c2ccc(Cl)cc2F)O3)CCN1Cc1nc2ccc(C(=O)O)cc2n1C[C@@H]1CCO1 (some centres unmarked) [Compound I-091]
106 | 0.0274 | COc1cc(C(=O)O)cc2c1nc(CN1CCc3cc(Cl)c(OCc4cc(F)c(Cl)cc4F)nc3[C@@H]1C)n2C[C@@H]1CCO1 [Compound I-072]
122 | 0.0463 | C[C@H]1c2nc(OCc3ccc(Cl)cc3F)c(C(F)F)cc2CCN1Cc1nc2ccc(C(=O)O)c(F)c2n1C[C@@H]1CCO1 [Compound I-116]
106 | 0.0739 | C[C@H]1c2nc(OCc3ccc(Cl)cc3F)c(Cl)cc2CCN1Cc1nc2c(F)cc(C(=O)O)cc2n1C[C@@H]1CCO1 [Compound I-089]
102 | 3.6 | C[C@H]1c2cc(OCc3ccc(Cl)cn3)c(C(F)F)cc2CCN1Cc1nc2ccc(C(=O)O)cc2n1C[C@@H]1CCO1 [Compound I-003]
116 | 0.122 | C[C@H]1c2nc(OCc3ccc(F)cc3F)c(Cl)cc2CCN1Cc1nc2c(F)cc(C(=O)O)cc2n1C[C@@H]1CCO1 [Compound I-083]
123 | 0.37 | C[C@H]1c2nc(OCc3ccc(Cl)cc3Cl)c(Cl)cc2CCN1Cc1nc2ccc(C(=O)O)nc2n1C[C@@H]1CCO1 [Compound I-030]
101 | 7.04 | C[C@H]1c2nc(OCc3cc(Cl)n(C)n3)c(C(F)(F)F)cc2CCN1Cc1nc2ccc(C(=O)O)cc2n1C[C@@H]1CCO1 [Compound I-154]
75.3 | 514 | O=C(O)c1ccc2nc(C3CC34CCc3cc(C(F)(F)F)c(OCc5ccc(Cl)cc5F)cc3C4)n(C[C@@H]3CCO3)c2c1 (some centres unmarked) [Compound I-104]
